Key:
[1] = tested on: human PBMCs; assay: Compound-induced immune cell activation (CD86 expression, flow cytometry); format: cell-based; conditions: monocytes, B cells, cDCs and pDCs (FIG. 1A-1D); 48 hr
Description: This example evaluates the ability of Compound 1 to stimulate the activation of different immune cells populations (monocyte, B cell, and DCs) in human PBMCs (Peripheral blood mononuclear cells), cyno PBMCs and mouse splenocytes. Compound A, above, and resiquimod, below, were used as controls in this assay
Peripheral blood mononuclear cells (PBMCs) were isolated from fresh collected blood from two healthy human donors and two cynomolgus monkey donors using Leukosep tube and Nycoprep 1.077 buffer according to the manufacture's recommendation. Mouse splenocytes were isolated from C57/BL6 mouse spleens by macerating and straining over a 70 μm cell strainer. Isolated PBMCs or splenocytes were then frozen done using frozen medium. On the day of the assay, PBMCs or splenocytes were thawed and cultured in PBMC culture medium (RPMI supplemented with 10% heat-inactivated fetal bovine serum from Hyclone, 1% Penicillin/Streptomycin and 2 mmol/L-glutamax). 300k of PBMC or splenocytes in 50 μL of culture medium were seeded in 96-well cell culture plates. 50 μL of the test articles (formulated at 2× of starting concentration, 1:4 serial dilution) were then added into the well. The cell mixtures were co-cultured in the presence of test articles and 10 pg/mL LPS-RS for 48 hr and collected by Accutase. […] Cells were washed, fixed with 2% PFA overnight, and read on the Attune NxT cytometer (Thermo Fisher). […]

[2] = target: T1, human TLR7 (Homo sapiens, UniProt Q9NYK1); assay: HEK293 SEAP reporter assay, human TLR7 (Biological Example 1); format: cell-based; conditions: HEK293-humanTLR7 reporter cells, 4 hrs; read-out: hTLR7 EC50
T1 construct: host or cells: HEK293
T1 sequence (Q9NYK1 27-1049): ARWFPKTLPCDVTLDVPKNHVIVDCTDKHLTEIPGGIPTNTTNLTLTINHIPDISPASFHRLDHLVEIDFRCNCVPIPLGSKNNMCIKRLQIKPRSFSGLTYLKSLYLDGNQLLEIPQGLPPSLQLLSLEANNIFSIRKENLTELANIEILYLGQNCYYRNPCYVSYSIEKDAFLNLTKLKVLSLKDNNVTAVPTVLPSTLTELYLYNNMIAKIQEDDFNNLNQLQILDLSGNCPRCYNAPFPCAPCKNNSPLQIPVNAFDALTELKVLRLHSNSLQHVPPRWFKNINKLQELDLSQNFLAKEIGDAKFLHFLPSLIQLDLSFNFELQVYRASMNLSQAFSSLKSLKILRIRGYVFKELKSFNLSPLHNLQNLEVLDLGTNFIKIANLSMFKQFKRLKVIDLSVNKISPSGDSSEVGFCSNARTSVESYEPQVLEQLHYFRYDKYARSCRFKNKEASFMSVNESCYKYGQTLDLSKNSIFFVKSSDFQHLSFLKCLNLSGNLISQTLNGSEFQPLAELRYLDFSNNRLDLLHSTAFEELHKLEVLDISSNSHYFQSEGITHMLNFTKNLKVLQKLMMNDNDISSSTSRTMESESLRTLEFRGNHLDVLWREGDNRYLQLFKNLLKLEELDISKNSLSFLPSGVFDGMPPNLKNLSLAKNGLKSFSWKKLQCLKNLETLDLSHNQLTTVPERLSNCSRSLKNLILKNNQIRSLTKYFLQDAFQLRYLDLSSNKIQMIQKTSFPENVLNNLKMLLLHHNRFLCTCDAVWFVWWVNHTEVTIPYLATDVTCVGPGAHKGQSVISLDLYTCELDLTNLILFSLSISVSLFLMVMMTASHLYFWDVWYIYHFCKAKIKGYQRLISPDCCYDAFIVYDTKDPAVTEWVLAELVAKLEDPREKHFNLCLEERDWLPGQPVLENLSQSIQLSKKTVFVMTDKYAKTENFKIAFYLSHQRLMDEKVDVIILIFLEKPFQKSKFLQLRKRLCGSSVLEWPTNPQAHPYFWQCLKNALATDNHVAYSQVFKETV
Experimental: In this example, the activity of the TLR7 agonists to activate human TLR7, hTLR7 (or human TLR8, hTLR8, or mouse TLR7, mTLR7) pathway was evaluated on HEK293 reporter cells transfected with human TLR7 (or mouse TLR7 or human TLR8) and an inducible SEAP (secreted embryonic alkaline phosphatase) reporter gene. The SEAP reporter gene is placed under the control of the IFN-β minimal promoter fused to five NF-κB and AP-1-binding sites. Stimulation with a TLR7 agonist activates NF-KB and AP-1 which induces the production of SEAP. Levels of SEAP was determined with HEK-Blue Detection medium.
HEK293-humanTLR7, HEK293-mouseTLR7 and HEK293-humanTLR8 reporter cell lines were purchased from Invivogen and cell lines were maintained in manufacture recommended culture medium with required supplemental antibiotics. On the day of assay, the cells were harvested with Accutase and counted by the Vi-CELL Cell Viability Analyzers. Cells were re-suspended in HEK blue detection medium and a total of 10000 cells were seeded in each well of a 384-well flat bottom plate. Serial dilutions of TLR7 agonists free drugs (1:3 serial dilution starting from 5 μM) was added into treatment wells. Assay plates were cultured at 37° C. in a CO2 incubator for […]. HEK-Blue™ Detection medium changes to a purple/blue color in the presence of secreted SEAP, which can be detected by spectrophotometry at 620-655 nm. […]

In the case of `CCCCn1nc2c(N)nc3ccccc3c2c1Cc1ccc(CN)cc1` [Compound 1, 1-(4-(aminomethyl)benzyl)-2-butyl-2H-pyrazolo[3,4-c]quinolin-4-amine], the “activation of immune cells in human PBMCs” value [1] is reported as “very potent in activating” and the EC50 [2] is reported as 46.7 nM.

— patent US20220259202A1, “1-(4-(AMINOMETHYL)BENZYL)-2-BUTYL-2H-PYRAZOLO[3,4-C]QUINOLIN-4-AMINE DERIVATIVES AND RELATED COMPOUNDS AS TOLL-LIKE RECEPTOR (TLR) 7/8 AGONISTS, AS WELL AS ANTIBODY DRUG CONJUGATES THEREOF FOR USE IN CANCER THERAPY AND DIAGNOSIS” (SUTRO BIOPHARMA, INC., priority 2019, published 2022)
